Experimental data: patent US8501744B2, “Piperazine compounds” (Amura Therapeutics, Limited, priority 2008, dated 2013)

Molecular target: Human recombinant cathepsin K (Homo sapiens (Human), UniProt P43235)
Experiment: In vitro cathepsin Ki inhibition measurements
Type: biochemical
Details: for Ki: human recombinant cathepsin K, pH 5.5, Z-Leu-Arg-AMC substrate, read-out: In vitro Ki (nM) vs Cath K; for fold improvement in in vitro potency against human cathepsin K: relative to closest prior art compound (42)
Protocol: Stock solutions of substrate or inhibitor were made up to 10 mM in 100% dimethylsulfoxide (DMSO) (Rathburns, Glasgow, U.K.) and diluted as appropriately required. In all cases the DMSO concentration in the assays was maintained at less than 1% (vol./vol.). The equilibrium inhibition constants (Ki^ss) for each compound were measured under steady-state conditions monitoring enzyme activity as a function of inhibitor concentration. The values were calculated on the assumption of pure competitive behaviour (Cornish-Bowden, A. Fundamentals of enzyme kinetics Portland Press; 1995, 93-128.). Human recombinant cathepsin K (0.25 nM final; B. Turk, Josef, Stefan Institute, Ljubljana, Slovenia), was routinely assayed in 100 mM sodium acetate; pH 5.5 containing 1 mM EDTA, 10 mM L-cysteine and 1.8 μM Z-Leu-Arg-AMC ([S]=KM).
The apparent inhibition constant (Ki) for each compound was determined on the basis that inhibition was reversible and occurred by a pure-competitive mechanism. The Ki values were calculated, from the dependence of enzyme activity as a function of inhibitor concentration, by direct regression analysis (Prism v 3.02) using Equation 2 (Cornish-Bowden, A., 1995.).
In situations where the apparent dissociation constant (Ki^app) approached the enzyme concentrations, the Ki^app values were calculated using a quadratic solution in the form described by Equation 3 (Morrison, J. F. Trends Biochem. Sci., 7, 102-105, 1982; Morrison, J. F. Biochim. Biophys. Acta. 185, 269-286, 1969; Stone, S. R. and Hofsteenge, J. Biochemistry, 25, 4622-4628, 1986).
Curves were fitted by non-linear regression analysis (Prism) using a fixed value for the enzyme concentration. Equation 4 was used to account for the substrate kinetics, where ‘Ki’ is the inhibition constant, ‘[So]’ is the initial substrate concentration and ‘KM^app’ is the apparent macroscopic binding (Michaelis) constant for the substrate (Morrison, 1982).

Sequence of Human recombinant cathepsin K (P43235 115-329): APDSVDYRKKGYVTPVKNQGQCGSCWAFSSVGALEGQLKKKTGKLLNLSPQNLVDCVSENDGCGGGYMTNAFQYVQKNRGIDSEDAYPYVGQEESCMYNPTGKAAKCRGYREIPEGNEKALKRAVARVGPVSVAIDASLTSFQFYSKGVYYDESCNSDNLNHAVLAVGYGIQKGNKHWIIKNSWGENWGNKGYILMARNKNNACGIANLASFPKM

SMILES	Ki [nM]	fold improvement in in vitro potency against human cathepsin K [fold]
CC[C@@H]1CN(C(=O)[C@@H](NC(=O)c2ccc(N3CCN(C)CC3)cc2)C2CCCC2)[C@@H]2C(=O)CO[C@H]12 [Example 27, N—((S)-1-cyclopentyl-2-((3aS,6R,6aR)-6-ethyl-3-oxodihydro-2H-furo[3,2-b]pyrrol-4(5H,6H,6aH)-yl)-2-oxoethyl)-4-(4-methylpiperazin-1-yl)benzamide]	1.2	7.3
C[C@@H]1CN(C(=O)[C@@H](NC(=O)c2ccc(N3CCN(C)CC3)cc2)C2CCCC2)[C@@H]2C(=O)CO[C@H]12 [Example 4, N—((S)-1-cyclopentyl-2-((3aS,6R,6aR)-6-methyl-3-oxodihydro-2H-furo[3,2-b]pyrrol-4(5H,6H,6aH)-yl)-2-oxoethyl)-4-(4-methylpiperazin-1-yl)benzamide]	1	8.7
CC[C@@H]1CN(C(=O)[C@@H](NC(=O)c2ccc(N3CCN(C)CC3)cc2)C(C)(C)C)[C@@H]2C(=O)CO[C@H]12 [Example 23, N—((S)-1-((3aS,6R,6aR)-6-ethyl-3-oxodihydro-2H-furo[3,2-b]pyrrol-4(5H,6H,6aH)-yl)-3,3-dimethyl-1-oxobutan-2-yl)-4-(4-methylpiperazin-1-yl)benzamide]	4.4	–
CC(C)C[C@H](NC(=O)c1ccc(-c2csc(N3CCN(C)CC3)n2)cc1)C(=O)N1C[C@@H](C)[C@H]2OCC(=O)[C@H]21 [Example 16, N—((S)-4-methyl-1-((3aS,6R,6aR)-6-methyl-3-oxodihydro-2H-furo[3,2-b]pyrrol-4(5H,6H,6aH)-yl)-1-oxopentan-2-yl)-4-(2-(4-methylpiperazin-1-yl)thiazol-4-yl)benzamide]	0.7	–
CC(C)[C@@H]1CN(C(=O)[C@@H](NC(=O)c2ccc(N3CCN(C)CC3)cc2)C2CCCC2)[C@@H]2C(=O)CO[C@@H]21 [Example 28, N—((S)-1-cyclopentyl-2-((3aS,6R,6aR)-6-isopropyl-3-oxodihydro-2H-furo [3,2-b]pyrrol-4(5H,6H,6aH)-yl)-2-oxoethyl)-4-(4-methylpiperazin-1-yl)benzamide]	1.5	5.8
CC[C@H]1CN(C(=O)[C@@H](NC(=O)c2ccc(N3CCN(C)CC3)cc2)C(C)(C)C)[C@@H]2C(=O)CO[C@H]12 [Example 25, N—((S)-1-((3aS,6S,6aR)-6-ethyl-3-oxodihydro-2H-furo[3,2-b]pyrrol-4(5H,6H,6aH)-yl)-3,3-dimethyl-1-oxobutan-2-yl)-4-(4-methylpiperazin-1-yl)benzamide]	0.8	–
CC(C)C[C@H](NC(=O)c1ccc(N2CCN(C)CC2)cc1)C(=O)N1C[C@@H](C(F)F)[C@H]2OCC(=O)[C@H]21 [Example 8, N—((S)-1-((3aS,6R,6aR)-6-(difluoromethyl)-3-oxodihydro-2H-furo[3,2-b]pyrrol-4(5H,6H,6aH)-yl)-4-methyl-1-oxopentan-2-yl)-4-(4-methylpiperazin-1-yl)benzamide]	1.7	5.7
CC(C)[C@H]1CN(C(=O)[C@@H](NC(=O)c2ccc(N3CCN(C)CC3)cc2)C(C)(C)C)[C@@H]2C(=O)CO[C@H]12 [Example 26, N—((S)-1-((3aS,6S,6aR)-6-isopropyl-3-oxodihydro-2H-furo[3,2-b]pyrrol-4 (5H,6H,6aH)-yl)-3,3-dimethyl-1-oxobutan-2-yl)-4-(4-methylpiperazin-1-yl)benzamide]	0.8	–
CC(C)C[C@H](NC(=O)c1ccc(N2CCN(C)CC2)cc1)C(=O)N1C[C@@H](C)[C@H]2OCC(=O)[C@H]21 [Example 1, N—((S)-4-methyl-1-((3aS,6R,6aR)-6-methyl-3-oxodihydro-2H-furo[3,2-b]pyrrol-4(5H,6H,6aH)-yl)-1-oxopentan-2-yl)-4-(4-methylpiperazin-1-yl)benzamide]	2.5	3.5
CC(C)[C@@H]1CN(C(=O)[C@@H](NC(=O)c2ccc(N3CCN(C)CC3)cc2)C(C)(C)C)[C@@H]2C(=O)CO[C@@H]21 [Example 24, N—((S)-1-((3aS,6R,6aH)-6-isopropyl-3-oxodihydro-2H-furo[3,2-b]pyrrol-4(5H,6H,6aH)-yl)-3,3-dimethyl-1-oxobutan-2-yl)-4-(4-methylpiperazin-1-yl)benzamide]	3.2	–

Now from value to compound:

Ki [nM]	fold improvement in in vitro potency against human cathepsin K [fold]	SMILES
0.75	11.6	CC(C)C[C@H](NC(=O)c1ccc(N2CCN(C)CC2)cc1)C(=O)N1C[C@H](C)[C@H]2OCC(=O)[C@H]21 [Example 5, N—((S)-4-methyl-1-((3aS,6S,6aR)-6-methyl-3-oxodihydro-2H-furo[3,2-b]pyrrol-4(5H,6H,6aH)-yl)-1-oxopentan-2-yl)-4-(4-methylpiperazin-1-yl)benzamide]
0.45	18.9	CC(C)[C@H]1CN(C(=O)[C@@H](NC(=O)c2ccc(N3CCN(C)CC3)cc2)C2CCCC2)[C@@H]2C(=O)CO[C@H]12 [Example 30, N—((S)-1-cyclopentyl-2-((3aS,6S,6aR)-6-isopropyl-3-oxodihydro-2H-furo[3,2-b]pyrrol-4(5H,6H,6aH)-yl)-2-oxoethyl)-4-(4-methylpiperazin-1-yl)benzamide]
0.4	22.9	CC[C@H]1CN(C(=O)[C@@H](NC(=O)c2ccc(N3CCN(C)CC3)cc2)C2CCCC2)[C@@H]2C(=O)CO[C@H]12 [Example 29, N—((S)-1-cyclopentyl-2-((3aS,6S,6aR)-6-ethyl-3-oxodihydro-2H-furo[3,2-b]pyrrol-4(5H,6H,6aH)-yl)-2-oxoethyl)-4-(4-methylpiperazin-1-yl)benzamide]
0.8	10.9	CC(C)C[C@H](NC(=O)c1ccc(N2CCN(C)CC2)cc1)C(=O)N1C[C@H](C(F)F)[C@H]2OCC(=O)[C@H]21 [Example 12, N—((S)-1-((3aS,6S,6aR)-6-(difluoromethyl)-3-oxodihydro-2H-furo[3,2-b]pyrrol-4(5H,6H,6aH)-yl)-4-methyl-1-oxopentan-2-yl)-4-(4-methylpiperazin-1-yl)benzamide]
0.35	24.9	C[C@H]1CN(C(=O)[C@@H](NC(=O)c2ccc(N3CCN(C)CC3)cc2)C2CCCC2)[C@@H]2C(=O)CO[C@@H]21 [Example 7, N—((S)-1-cyclopentyl-2-((3aS,6S,6aR)-6-methyl-3-oxodihydro-2H-furo [3,2-b]pyrrol-4(5H,6H,6aH)-yl)-2-oxoethyl)-4-(4-methylpiperazin-1-yl)benzamide]
